Data set [1] deals with peptidase (PEP). The note with it: cited from earlier work.
Data set [2] relates to alkaline phosphatase (ALP). Also noted: method as in PMID 36835510. The note with it: chronic exposure of daphnids; ref [30]; cited from earlier work.
For data set [3], the system named is acid phosphatase (ACP). Set-up: method as in PMID 36835510. The note with it: chronic exposure of daphnids; ref [30]; cited from earlier work.
Data set [4] deals with Daphnia magna. The note with it: cited from earlier work.
Data set [5] deals with acid phosphatase (ACP). In words: Acid phosphatase activity in daphnid homogenate after chronic/transgenerational exposure. The data set is classed as in vivo, Daphnia magna.
In data set [6] the test system is Daphnia magna. In words: Feeding assay (ingestion of fluorescent microparticles). It counts as in vivo. The note with it: neonates, 1 mg/L for 24 h. The procedure: After 24 h, twenty […] transferred in a 12-well plate with 6 mL OECD containing the carboxylate-modified polystyrene, fluorescent red microparticles (2.0 μm mean particle size) at a concentration of 13 mg/L. The animals were exposed to the microplastic for up to 90 min, and media was collected every 15 min to estimate the removed microparticles by fluorescence at Ex 560 Em 590 nm using a TECAN plate reader. The concentration of microparticles in the media was optimized to ensure an excess of microparticles for the accurate quantification of ingestion. Furthermore, we have extensively tested these particles, which show no toxicity to the […] for the short exposure periods used. We performed control experiments with neonates, as they would be more sensitive, for even up to 10 h to microplastics at even higher concentrations (up to 52 mg/L), and all animals from all experiments following the feeding assay were alive and healthy. Fluorescence was expressed to the amount of ingested microparticles using a standard curve. To confirm the ingestion of microparticles in the gut of […], animals were imaged with a stereoscope and fluorescence microscopy using the TRITC filter for carboxyl functionalized particles. […] The animals were fed daily with 2 mL of fresh algae (Chlamydomonas reinhardtii) with a concentration of 6 million cells/mL. […]

The subject of data set [7] is GST. Also noted: method as in PMID 32259738. To be noted: exposure for 14 days; ref [71]; cited from earlier work.
The subject of data set [8] is alkaline phosphatase (ALP). The note with it: 1 mg/L. The procedure:
(§1) Chronic exposure was performed at 1 mg/L of each NSAID and their 1:1 mixture separately, which was selected as a non-lethal concentration. For enzyme activities in chronic and transgenerational exposures, neonates were cultured for two consecutive generations and following a 21-day recovery period (Figure 1B). […] Media and NSAIDs were renewed twice a week. Although the concentration of NSAIDs was not measured throughout the exposure, their renewal twice a week was sufficient to exert their action. […] Daphnids were fed daily with 2 mL fresh algae (C. reinhardtii) with a concentration of 6 million cells/mL, and a seaweed extract (Ascophylum nodosum) was supplemented only on the days of media change.
(§2) Five 7, 14, and 21-day-old animals were used per biological replicate and homogenized in 0.5 mL ddH2O using a pestle homogenizer. The homogenate was cleared by centrifugation (12,000× g for 5 min at 5 °C), and the clear supernatant was collected and used to assess the enzyme activity as described elsewhere. 200 μL appropriately diluted sample in buffer was assessed for the activity of phosphatases (in 100 mM acetic acid pH 4.5 for acid phosphatase or 100 mM boric acid pH 9.8 for alkaline phosphatase) using 50 μL of the substrate p-nitrophenyl phosphate (8 mM) and monitoring the production of p-nitrophenol at 405 nm after its alkalinization (with 50 μL 4M NaOH). In addition, the activities of β-galactosidase and lipase were measured with the same experimental conditions by the generation of nitrophenol from the catalysis of o-nitrophenyl-β-galactoside or p-nitrophenyl butyrate, respectively, but in phosphate buffer pH 7.2. Glutathione-S-transferase (GST) activity was assessed by the reaction of reduced glutathione with 1-chloro-2,4-dinitrobenzene. 200 μL appropriately diluted sample in phosphate buffer pH 7.2 was mixed with 50 μL 2 mM CDNB, and 6 mM reduced glutathione, and the formation of the complex was measured continuously at 340 nm and converted to units of activity with the extinction coefficient. Protein was quantified by an ultrasensitive Bradford protocol to normalize the results.

A further data set relates to β-galactosidase (β-gal). To be noted: 1 mg/L. As for the experimental part:
as §1, §2

For data set [9], the system named is glutathione-S-transferase (GST). The note with it: 1 mg/L. As for the experimental part:
as §1, §2

Data set [10] concerns Daphnia magna. In words: Acute toxicity (immobilization) of neonates, 24 h toxicity curves.
A further data set concerns lipase (LIP). In words: Lipase activity in daphnid homogenate after chronic/transgenerational exposure. It counts as in vivo, Daphnia magna.
A further data set concerns D. magna. The note with it: ref [21], cited from earlier work.
In data set [11] the test system is GST. To be noted: 28-day exposure to 25 mg/L; ref [53]; cited from earlier work.
Data set [12] relates to peptidase (PEP). In words: Peptidase activity in daphnid homogenate after chronic/transgenerational exposure. It counts as in vivo, Daphnia magna.
The conditions of data set [13]: cited from earlier work.
Data set [14] concerns glutathione-S-transferase (GST). Set-up: method as in PMID 32806449. The note with it: intermediate concentrations (1.2 and 6 μg/L); ref [67]; cited from earlier work.
[15] abbreviates: 1 mg/L, age 7 days, first generation.
Setting [16] is: 1 mg/L, age 21 days, 2nd generation.
[17] abbreviates: 1 mg/L, age 21 days, first generation.
Where [18] appears, read: age 21 days, 3rd generation recovery in clean OECD media after two generations at 1 mg/L.
Setting [19] is: neonates, 24 h exposure, immobilization.
Where [20] appears, read: 1 mg/L, age 14 days, first generation.

Values after ≈ are worked out from the molar mass of the structure shown. Read-outs that look alike come from different tables or passages of the source.

Broadly, the EC50 is the midpoint of the concentration-response curve. Read a low EC50 as greater potency. What is called EC10 is the point of the concentration-response curve where the effect stands at 10%. Read a low EC10 as greater potency. The term EC20 denotes the concentration at which the effect reaches the 20% level. A high value points to a need for much substance.

As for `O=C(O)Cc1ccccc1Nc1c(Cl)cccc1Cl` [Diclofenac], the “effect on activity of PEP” value with peptidase (PEP) [1] (chronic exposure of daphnids, ref [30]) was “increasing”. In addition, in data set [2], the “effect on activity of ALP” value is reported as “reduced”. Besides, the “effect on activity of ACP” value in the data set on acid phosphatase (ACP) [3] is listed as “reduced”. Also, the “effect on feeding rate” value in the data set with Daphnia magna [4] (neonates of D. magna, ref [67],[68]) is given as “reduce the feeding rate”.

Regarding `CC(C)Cc1ccc(C(C)C(=O)O)cc1` (stereo not shown) [Ibuprofen], the ACP enzyme activity was 8.14 ± 0.33 units/mg protein with acid phosphatase (ACP) [5] (setting [15]), 2.78 ± 0.21 units/mg protein with acid phosphatase (ACP) [5] (setting [16]), 3.09 ± 0.04 units/mg protein in the data set on acid phosphatase (ACP) [5] (setting [17]) and 3.24 ± 0.47 units/mg protein in the data set with acid phosphatase (ACP) [5] (setting [18]). Also, in the data set on Daphnia magna [6], the “reduction of feeding rate compared to DMSO” value is on record as 30%. Further, the “effect on activity of GST” value is “reduced the activity of GST” in the data set on GST [7] and “increase in the activity of GST” with GST [11]. The ALP enzyme activity in [8] (age 7 days, first generation) came to 6.55 ± 0.26 units/mg protein; in [8] (age 14 days, first generation), 2.63 ± 0.14 units/mg protein; in data set [8] (age 21 days, 2nd generation), 3.27 ± 0.15 units/mg protein. For the same compound, the “change of ALP activity compared with DMSO” value in data set [8] (age 21 days, 2nd generation) is given as −10%. The “change of β-gal activity compared with DMSO” value is listed as −17% in the data set with β-galactosidase (β-gal) (age 7 days, first generation) and −17% in the data set with β-galactosidase (β-gal) (age 21 days, 2nd generation). The β-gal enzyme activity in the data set on β-galactosidase (β-gal) (age 7 days, first generation) is 1.26 ± 0.06 units/mg protein; in the data set with β-galactosidase (β-gal) (age 14 days, first generation), 2.08 ± 0.75 units/mg protein; in the data set on β-galactosidase (β-gal) (age 21 days, 2nd generation) it was 3.93 ± 0.22 units/mg protein; in the data set with β-galactosidase (β-gal) (age 21 days, first generation), 5.13 ± 0.25 units/mg protein. In addition, the GST enzyme activity in data set [9] (age 7 days, first generation) came to 95.6 ± 10 munits/mg protein; in [9] (age 14 days, first generation) it was 151.7 ± 11.7 munits/mg protein; in data set [9] (age 21 days, 2nd generation) it was 123.5 ± 2.1 munits/mg protein; in data set [9] (age 21 days, first generation) it was 67.6 ± 4.4 munits/mg protein. For the same compound, the “change of GST activity compared with DMSO” value in [9] (age 21 days, 2nd generation) was “+18%”. This compound also had an EC50 with Daphnia magna [10] (Daphnia magna, 24 h) of 17.8 µg/mL (≈ 86.3 µM). In the data set on Daphnia magna [10] (setting [19]), this compound yielded an EC1 of 8.62 mg/L. In addition, the EC5 with Daphnia magna [10] (setting [19]) came out at 11.19 mg/L. The compound also returned an EC10 with Daphnia magna [10] (setting [19]) of 12.59 mg/L (≈ 61 µM). The compound also showed an EC20 in the data set on Daphnia magna [10] (setting [19]) of 14.3 mg/L (≈ 69.3 µM). Also, the LIP enzyme activity is 123.76 ± 2.26 units/mg protein in the data set on lipase (LIP) (setting [15]); 148.12 ± 37.62 units/mg protein with lipase (LIP) (setting [20]); 47.53 ± 1.66 units/mg protein in the data set with lipase (LIP) (setting [16]); 78.43 ± 4.27 units/mg protein in the data set with lipase (LIP) (setting [17]); 53.32 ± 6.51 units/mg protein in the data set on lipase (LIP) (setting [18]). Further, the “change of LIP activity compared with DMSO” value in the data set with lipase (LIP) (setting [15]) is listed as −10%; in the data set on lipase (LIP) (setting [16]), −28%. Moreover, the survival entry in the data set with D. magna (neonates exposed to 20 mg/L and 40 mg/L for 14 days) is recorded as “unaffected”. Moreover, the reduction of survival with D. magna (neonates exposed to 80 mg/L for 14 days) is given as 19%. Besides, the PEP enzyme activity in the data set with peptidase (PEP) [12] (setting [15]) was determined as 29.54 ± 7.34 units/mg protein; with peptidase (PEP) [12] (setting [20]) it was 1.93 ± 0.27 units/mg protein; with peptidase (PEP) [12] (setting [17]), 10.52 ± 1.39 units/mg protein; with peptidase (PEP) [12] (setting [18]) it was 4.61 ± 0.35 units/mg protein. Besides, the average strength maintained in data set [13] (for 5 months, ref [39]) is given as > 90%. For the same compound, the time stable in data set [13] (room temperature, ref [37],[38]) is on record as 15 days.

With `CC(=O)Oc1ccccc1C(=O)O` [acetylsalicylic acid], the “effect on activity of PEP” value in the data set on peptidase (PEP) [1] (acute exposure of daphnids, ref [28]) was “decreased”.

On to `CC(C(=O)O)c1cccc(C(=O)c2ccccc2)c1` (stereo not shown) [ketoprofen], for which the “effect on activity of GST” value in [14] was “increased the activity of GST”. In addition, the effect on feeding result with Daphnia magna [4] (D5 daphnids, ref [67]) is recorded as “did not affect the feeding”.

Source of the values: article PMC10145367, “Acute and Transgenerational Effects of Non-Steroidal Anti-Inflammatory Drugs on Daphnia magna” (Toxics, 2023).
